Literature values, collected in patent US7148007B2, “Method for evaluating immunotoxicity of test substance” (priority 2001, dated 2006).

conditions: toxicity level based on that of 2,3,7,8-TCDD being 1; WHO 1998 TEF scheme

`Clc1cc2c(c(Cl)c1Cl)Oc1c(cc(Cl)c(Cl)c1Cl)O2` [1,2,3,7,8,9-HxCDD, 1,2,3,7,8,9-Hexachlorodibenzo-p-dioxin] and `Clc1cc2c(c(Cl)c1Cl)Oc1cc(Cl)c(Cl)c(Cl)c1O2` [1,2,3,6,7,8-HxCDD] are the same in WHO-TEF: 0.1 for the first, 0.1 for the second.

First: Clc1c(Cl)c(Cl)c2c(c1Cl)Oc1c(Cl)c(Cl)c(Cl)c(Cl)c1O2 [OCDD, 1,2,3,4,5,6,7,8,9-Octachlorodibenzo-p-dioxin]
Second: Clc1cc2c(cc1Cl)Oc1c(Cl)c(Cl)c(Cl)c(Cl)c1O2 [1,2,3,4,7,8-HxCDD, 1,2,3,4,7,8-Hexachlorodibenzo-p-dioxin]
The WHO-TEF of the first is lower: 0.0001 for the first, 0.1 for the second.

`Clc1cc2c(cc1Cl)Oc1cc(Cl)c(Cl)cc1O2` [2,3,7,8-TCDD, 2,3,7,8-Tetraorodibenzo-p-dioxin] and `Clc1cc2c(cc1Cl)Oc1c(cc(Cl)c(Cl)c1Cl)O2` [1,2,3,7,8-PeCDD, 1,2,3,7,8-Pentachlorodibnzo-p-dioxin] are the same in WHO-TEF: 1 for the first, 1 for the second.
